The target in the test is T1, serine/threonine kinase (ssSTK) (Streptococcus suis, UniProt A0A0H3MXV7).
T1 construct: gene SSUBM407_0373; 6 × his-tagged kinase domain of ssSTK (ssSTK^KD, pET28a-stk^KD) is the wild-type expression construct described; the assay text says 'purified ssSTK'
T1 sequence (A0A0H3MXV7 entry or part of it): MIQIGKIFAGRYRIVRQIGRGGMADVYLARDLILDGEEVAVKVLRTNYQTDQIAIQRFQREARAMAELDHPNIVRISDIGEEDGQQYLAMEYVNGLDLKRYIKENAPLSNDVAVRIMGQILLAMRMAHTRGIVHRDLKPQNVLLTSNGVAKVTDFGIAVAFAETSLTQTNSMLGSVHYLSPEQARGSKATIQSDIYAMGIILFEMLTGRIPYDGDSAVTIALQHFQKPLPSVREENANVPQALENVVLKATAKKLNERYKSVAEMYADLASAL
The test is described as follows: Kinase-Glo ATP consumption assay of autophosphorylation; confirmed by anti-P-Thr western blot. It counts as biochemical.
As a reminder, the IC50 is the concentration that inhibits the measured activity by half. Higher therefore signals weaker potency in that assay. For the compound `c1cc(Nc2cc(C3CC3)[nH]n2)nc(Nc2ccc3[nH]cnc3c2)n1` [APY29], the IC50 came out at 10.1 µM.
In turn, `O=C(Nc1c[nH]nc1-c1nc2cc(CN3CCOCC3)ccc2[nH]1)NC1CC1` [AT9283] came in with a 50% inhibitory concentration (IC50) of 10.6 µM.
As to `COC(=O)[C@@]1(O)C[C@H]2O[C@]1(C)n1c3ccccc3c3c4c(c5c6ccccc6n2c5c31)C(=O)NC4` [K252a], half-maximal inhibition (IC50) was put at 13.8 µM.
For `CN[C@@H]1C[C@H]2O[C@@](C)([C@@H]1OC)n1c3ccccc3c3c4c(c5c6ccccc6n2c5c31)C(=O)NC4` [Staurosporine] the value was 8.97 µM.

These data come from PMC9478340, “Inhibitors targeting the autophosphorylation of serine/threonine kinase of Streptococcus suis show potent antimicrobial activity” (Frontiers in Microbiology, 2022).
